BigSolDB 2.1

CC(=O)N(CC(O)CO)c1c(I)c(C(=O)NCC(O)CO)c(I)c(C(=O)NCC(O)CO)c1I (stereo not given)
solubility (mole fraction)
Settings | 283.15 K | 288.15 K | 293.15 K | 298.15 K | 303.15 K | 308.15 K | 313.15 K | 318.15 K | 323.15 K
in 1,4-dioxane | – | 5.7e-05 | 6.9e-05 | 8.3e-05 | 0.0001 | 0.000121 | 0.000145 | 0.000174 | 0.000208
in 2-butanone | 0.000148 | 0.000178 | 0.000211 | 0.000255 | 0.000301 | 0.000358 | 0.000425 | 0.00049 | 0.000566
in DMSO | – | – | 0.000293 | 0.000357 | 0.000428 | 0.00051 | 0.000624 | 0.000737 | 0.000869
in acetone | 0.000174 | 0.000209 | 0.000256 | 0.000308 | 0.000371 | 0.000443 | 0.000526 | 0.00062 | 0.000741
in acetonitrile | 8.47e-05 | 0.000101 | 0.000123 | 0.000146 | 0.000175 | 0.00021 | 0.00025 | 0.000298 | 0.000354
in cyclohexane | 9.38e-06 | 1.22e-05 | 1.55e-05 | 2e-05 | 2.51e-05 | 3.14e-05 | 3.89e-05 | 4.81e-05 | 5.96e-05
in ethanol | 0.00113 | 0.0013 | 0.00148 | 0.00169 | 0.00192 | 0.00217 | 0.00244 | 0.00274 | 0.00306
in ethyl acetate | 0.000126 | 0.00015 | 0.00018 | 0.000215 | 0.000256 | 0.000301 | 0.000355 | 0.000414 | 0.000481
in isopropanol | 0.000389 | 0.000456 | 0.000555 | 0.000674 | 0.000806 | 0.000966 | 0.00115 | 0.00137 | 0.00165
in n-butanol | 0.000235 | 0.000287 | 0.000342 | 0.000416 | 0.0005 | 0.000601 | 0.000723 | 0.000866 | 0.00103
in n-propanol | 0.000715 | 0.000804 | 0.000911 | 0.00104 | 0.00119 | 0.00137 | 0.00156 | 0.00181 | 0.0021
in toluene | 2.5e-05 | 3.22e-05 | 4.06e-05 | 5.12e-05 | 6.28e-05 | 7.57e-05 | 9.19e-05 | 0.000112 | 0.000134
